In patent publication US11819476B2, “Rapamycin analogs and uses thereof” (Janssen Pharmaceutica NV, priority 2019, dated 2023):

Test system: pS6K1 in MCF7
Assay: AlphaLISA Ultra pS6K1 Assay
Format: cell-based
Details: Homo sapiens, 1.5 h; MCF7 cells, 90 min incubation
Experimental: Example 74: AlphaLISA Ultra pS6K1 Assay
Assay Protocol: • 1. Seed MCF-7 cells in Corning 3701 plate and incubate for 20˜24 hour. 12,000˜16,000 cells will be seeded in 36 μL medium per well. • 2. Change the culture medium with fresh medium and incubate for another 2 hours. • 3. Add 12 μL (4×) compounds into the cell plate by HAMILTON. Final DMSO concentration is 0.5%. Incubate for 90 minutes. • 4. Aspirate 38 μL by HAMILTON, 10 μL rest per well. • 5. Add 10 μL 2× lysis buffer using HAMILTON; total volume in wells is 20 μL. Allow cells to shake for 30 min. Cover plate by plastic foil and store plate at −80° C. up to analysis. • 6. Thaw cell lysate at RT and transfer 10 μL lysate to assay plate (Optiplate-384). • 7. Add 5 μL acceptor beads into assay plate and incubation for 2 hours • 8. Add 5 μL donor beads and incubation for 2 hours • 9. Count the plate by EnSpire Multimode Plate Reader

| IC50 | SMILES |
| --- | --- |
| 1 to 10 nM | CO[C@@H]1C[C@H](C[C@@H](C)[C@@H]2CC(=O)[C@H](C)/C=C(\C)[C@@H](O)[C@@H](OC)C(=O)[C@H](C)C[C@H](C)/C=C/C=C/C=C(\C)[C@H](OCCOc3ccccc3)C[C@@H]3CC[C@@H](C)[C@@](O)(O3)C(=O)C(=O)N3CCCC[C@H]3C(=O)O2)CC[C@H]1OCCO [Example I-6, (26E,28E,30E,31E,38R,39S,40R,41R,43S,45S,47R,48S,49R,50R,59R)-49,59-dihydroxy-48-[(1R)-2-[(1S,3R,4R)-4-(2-hydroxyethoxy)-3-methoxy-cyclohexyl]-1-methyl-ethyl]-50-methoxy-38,39,40,41,51,52-hexamethyl-47-(2-phenoxyethoxy)-69,70-dioxa-60-azatricyclohexatriaconta-26,28,30(51),31(52)-tetraene-53,54,55,56,57-pentone] |
| 1 to 10 nM | CO[C@@H]1C[C@H](C[C@@H](C)[C@@H]2CC(=O)[C@H](C)/C=C(\C)[C@@H](O)[C@@H](OC)C(=O)[C@H](C)C[C@H](C)/C=C/C=C/C=C(\C)[C@H](OCCOC3COC3)C[C@@H]3CC[C@@H](C)[C@@](O)(O3)C(=O)C(=O)N3CCCC[C@H]3C(=O)O2)CC[C@H]1OCCO [Example I-8, (23E,25E,27E,28E,34R,35S,36R,37R,39S,41S,43R,44S,46R,47R,56R)-46,56-dihydroxy-44-[(1R)-2-[(1S,3R,4R)-4-(2-hydroxyethoxy)-3-methoxy-cyclohexyl]-1-methyl-ethyl]-47-methoxy-34,35,36,37,48,49-hexamethyl-43-[2-(oxetan-3-yloxy)ethoxy]-67,68-dioxa-57-azatricyclohexatriaconta-23,25,27(48),28(49)-tetraene-50,51,52,53,54-pentone] |
| 1 to 10 nM | CO[C@@H]1C[C@H](C[C@@H](C)[C@@H]2CC(=O)[C@H](C)/C=C(\C)[C@@H](O)[C@@H](OC)C(=O)[C@H](C)C[C@H](C)/C=C/C=C/C=C(\C)C(OCC3CCCCC3)C[C@@H]3CC[C@@H](C)[C@@](O)(O3)C(=O)C(=O)N3CCCC[C@H]3C(=O)O2)CC[C@H]1OCCO (stereo partly drawn) [Example I-10, (26E,28E,30E,31E,36R,37S,38R,39R,42S,44S,47S,48R,49R,58R)-46-(cyclohexylmethoxy)-48,58-dihydroxy-47-[(1R)-2-[(1S,3R,4R)-4-(2-hydroxyethoxy)-3-methoxy-cyclohexyl]-1-methyl-ethyl]-49-methoxy-36,37,38,39,50,51-hexamethyl-68,69-dioxa-59-azatricyclohexatriaconta-26,28,30(50),31(51)-tetraene-52,53,54,55,56-pentone] |
| < 0.1 nM | CO[C@@H]1C[C@H](C[C@@H](C)[C@@H]2CC(=O)[C@H](C)/C=C(\C)[C@@H](O)[C@@H](OC)C(=O)[C@H](C)C[C@H](C)/C=C/C=C/C=C(\C)C(OCC3CCCCO3)C[C@@H]3CC[C@@H](C)[C@@](O)(O3)C(=O)C(=O)N3CCCC[C@H]3C(=O)O2)CC[C@H]1OCCO (stereo partly drawn) [Example I-11, (25E,27E,29E,30E,35R,36S,37R,38R,40S,43S,46S,47R,48R,57R)-47,57-dihydroxy-46-[(1R)-2-[(1S,3R,4R)-4-(2-hydroxyethoxy)-3-methoxy-cyclohexyl]-1-methyl-ethyl]-48-methoxy-35,36,37,38,49,50-hexamethyl-45-(tetrahydropyran-2-ylmethoxy)-68,69-dioxa-58-azatricyclohexatriaconta-25,27,29(49),30(50)-tetraene-51,52,53,54,55-pentone] |
